Test results as given in patent US12344649B2, “Modulators of parathyroid hormone receptor (PTHR1)” (Flagship Pioneering Innovations VI, LLC, priority 2019, dated 2025).
Where “and” joins values, the source holds several entries; their conditions need not be identical. Equal values may be shown once. Where no end group is shown, it is not given here.

Key:
Type in all cases: cell-based
[1] = molecular target: T1, PTHR1 (Homo sapiens, UniProt Q03431); assay: β-arrestin1 recruitment BRET assay in transfected HEK293T cells; set-up: Flag (N); Life Technologies Corporation, CA (arrestin cDNA); host or cells: HEK293T (CRL-3216, ATCC); settings: for −log10Slope / EC50: β-arrestin1 recruitment, replicate plates; for −log10Slope: fitted curve slope; for EC50: read-out: −log10EC50 (converted)
T1 sequence (Q03431 27-593): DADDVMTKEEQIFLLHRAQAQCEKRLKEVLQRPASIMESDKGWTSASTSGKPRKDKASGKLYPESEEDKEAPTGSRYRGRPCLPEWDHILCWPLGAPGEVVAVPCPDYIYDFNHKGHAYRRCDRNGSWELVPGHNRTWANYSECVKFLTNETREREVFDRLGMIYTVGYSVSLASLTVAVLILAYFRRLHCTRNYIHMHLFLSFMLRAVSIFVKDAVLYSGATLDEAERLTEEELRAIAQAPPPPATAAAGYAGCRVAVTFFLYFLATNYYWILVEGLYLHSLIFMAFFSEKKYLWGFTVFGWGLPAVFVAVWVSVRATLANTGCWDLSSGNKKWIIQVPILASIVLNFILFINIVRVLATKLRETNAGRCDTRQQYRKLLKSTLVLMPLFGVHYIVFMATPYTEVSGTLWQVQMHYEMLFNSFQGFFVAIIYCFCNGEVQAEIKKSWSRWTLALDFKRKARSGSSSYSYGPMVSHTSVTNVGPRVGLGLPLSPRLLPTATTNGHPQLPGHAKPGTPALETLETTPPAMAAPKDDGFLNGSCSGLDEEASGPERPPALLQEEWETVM
Experimental: (§1) 18-24 hours post transfection, the Luciferase substrate Coelenterazine (NanoLight Technologies, AZ) was added to cells, a baseline BRET measurement was taken after 5 minutes incubation, and then serial dilutions of peptides, diluted in PBS (with 0.5 mM MgCl2+0.1% BSA FAF), were added to cells, and BRET signal was measured every 2 minutes for 30 minutes on Hybrid Multi-Mode Reader (Synergy Neo2, BioTek, VT). Seventy-five peptides were tested in the β-arrestin recruitment assay.

[2] = molecular target: T1, PTHR1; assay: β-arrestin2 recruitment BRET assay in transfected HEK293T cells; set-up: Flag (N); Life Technologies Corporation, CA (arrestin cDNA); host or cells: HEK293T (CRL-3216, ATCC); settings: for −log10Slope / EC50: β-arrestin2 recruitment, replicate plates; for −log10Slope: fitted curve slope; for β-arrestin2 assay activity compared to control peptide: FIG. 2, PTH 1-34 positive control; for β2-arrestin: relative to PTH [1-34], HEK293T cells, BRET; for EC50: read-out: −log10EC50 (converted)
Experimental: as §1

[3] = molecular target: T1, PTHR1; assay: cAMP accumulation assay (HTRF) in CHO-K1/Ga15/PTHR1 cells; set-up: host or cells: CHO-K1 (recombinant line CHO-K1/Ga15/PTHR1); settings: for Emax: CHO-K1, cAMP assay, fitted dose-response maximum; for EC50: read-out: −log10EC50 (converted)
Experimental: Cell suspension (5 μL) was seeded in 384-well plates at a density of 3,000 cells/well. Cells were treated with test samples (5 μL) or agonist (PTH 1-34) for 30 minutes at room temperature. cAMP-d2 working solution (5 μL) and anti-cAMP-Cryptate working solution (5 μL) were added to cells and incubated for 60 minutes at room temperature. The signal of the assay plate was read with PheraStar (BMG LABTECH, NC), an HTRF compatible reader.

[4] = cAMP assay, fitted dose-response curve
[5] = cAMP assay, fitted dose-response slope
[6] = cAMP accumulation, fitted curve slope, replicate plates
[7] = cAMP accumulation, replicate plates

Row | β1-arrestin ([1]; relative to PTH [1-34], HEK293T cells, BRET) | −log10Slope [1] | EC50 [1] | −log10Slope [2] | Emax [3] | EC50 [3, 4] | −log10Slope [3, 5] | cAMP ([3]; relative to PTH [1-34], CHO-K1/Ga15/PTHR1 cells) | β2-arrestin [2] | EC50 [2] | −log10Slope [3, 6] | EC50 [3, 7] | Sequence | β-arrestin1 recruitment compared to PTH 1-34 ([1]; FIG. 1, PTH 1-34 positive control) | cAMP accumulation activity compared to control peptide ([3]; FIG. 3, PTH 1-34 positive control) | β-arrestin2 assay activity compared to control peptide [2]
1 | ++ | 2.312 | 0.149 nM | −0.9875 | 97.4% | 2570 nM | −3.437 | – | – | – | – | – | GIAVITLMLLRAYLELLEELVKILHELLRRYH [Peptide R2-52] | higher levels of recruitment of β-arrestin 1 | – | –
2 | – | −1.524 | 29400 nM | −5.93 | 3.99% | 0.105 nM | 10.26 | ++ | – | – | – | – | GIAVITLMVLRALLELQEIGRKITLELLKEYI [Peptide R2-51] | – | increased activity as compared to the control peptide | –
3 | – | −0.1441 | – | −1.954 | – | – | – | – | ++ | 0.622 nM | −5.896 | 95.8 nM | GVAELQLMHDLAKIRAEYELREMLLRLLEEIF [Peptide R2-1] | – | – | increased activity as compared to control
4 | – | −1.586 and −3.87 | – | 2.528 and −0.3398 | – | – | – | – | – | – | −3.889 | 187 nM | GVAMIQIMHDIAKIRAEYELREMLLRLLEEIF [Peptide R2-2] | – | – | –
5 | – | −3.908 and −4.767 | 1200 nM | −1.169 and 10.26 | 99.8% | 574 nM | −8.416 | – | ++ | 0.0304 nM | – | – | GVAMLQIMHDLAKIKQELELKDSMKKILEDVL [Peptide R2-50] | – | – | increased activity as compared to control
6 | – | −2.339 | 3.7 nM | 4.445 | – | – | – | – | ++ | 0.349 nM | −24.9299 | 31.9 nM | SVMMIQVMHDLAKIRAEYELREMLLRLLEEIF [Peptide R2-8] | – | – | increased activity as compared to control
